Assay results as given in US7772192B2, “Compositions and methods for treatment of disease with acetylated disaccharides” (The Regents of the University of California, priority 2003, dated 2010).

How the values were obtained:
[1] = test system: cell-surface sLe^X of LS180 cells; assay: Flow cytometry of cell-surface sLe^X (CSLEX-1); assay type: cell-based, human; details: 50 μM
Experimental: Peracetylated forms of GlcNAcβ1,3Galβ-O-naphthalenemethanol (AcGnG-NM) and Galβ1,3Galβ-O-naphthalenemethanol (AcGG-NM) were prepared as described. Sarkar, et al., Carbohydr. Res., 329, 287-300, 2000. The compounds were dissolved in dimethylsulfoxide (DMSO) and added to growth medium to achieve the concentrations indicated in the figures. The supplemented medium was then exchanged for the medium in established cultures of cells in order to avoid lysis caused by adding concentrated DMSO directly to the plates. The final concentration of DMSO was adjusted to ≦0.5% (v/v). After the specified number of days, the cells were harvested with 2 mM EDTA in PBS (20 min) and used for the following experiments.
Cell Sorting. To detect the presence or absence of the relevant carbohydrate determinants, cells were stained with CSLEX-1 (anti-sLe^X, 5 μg/mL, Becton-Dickinson) or CA-19-9 ([…], 14.5 μg/mL, Chemicon) and analyzed by flow cytometry (FACScan Becton-Dickinson, Franklin Lakes, N.J.). […]
Treatment of LS180 cells with AcGnG-NM reduces cell-surface sLe^X, but not sLe^a. […] LS180 cells were grown in the presence of 50 μM AcGnG-NM, harvested with EDTA, stained with monoclonal antibodies (CSLEX-1, anti-sLe^X and CA19-9, anti-sLe^a) as indicated and analyzed by flow cytometry (Materials and Methods). […]

LLC cells [2] = assay: In vitro characterization of LLC cells (CSLEX-1 binding, lectin and PsIg flow cytometry); assay type: cell-based
Experimental: LLC cells were treated in culture for 4 days in the absence or presence of 50 μM peracetylated GlcNAcβ3Gal-NM. To quantitate sLex on the surface of LLC cells monoclonal antibody, CSLEX-1 binding to the cells was measured as described (Brown et al, J. Biol. Chem. 278: 23352-23359, 2003). […] Flow cytometry measures cell surface carbohydrate structures (Koenig et al, 1998). AAL and MAH are plant lectins. […] LLC cells have higher sialyltransferase activity than fucosyltransferase activity.

[3] = test system: sialyl Lewis X in HL-60, LS180, murine Lewis lung carcinoma, B16 murine melanoma cells; assay: Inhibition of sialyl Lewis X formation in cultured cells; assay type: cell-based
Source text: The disaccharides can be acylated with, e.g., acetyl, butyryl or benzoyl groups to reduce their hydrophilicity and make them permeable to cell membranes. […] The various disaccharides described above and their acylated or aryl derivatives are logical extensions of the present invention. In addition, analogs of the above compounds in which critical hydroxyl groups are missing or alkylated would bind to glycosyltransfersase and inhibit their activity.

LLC cells [4] = assay: Experimental metastasis of pretreated LLC cells; assay type: in vivo, mice; details: cells treated 4 days, Es1(e) mice, 3 weeks
Experimental: (A) LLC cells were treated in culture for 4 days with peracetylated GlcNAcβ3Gal-NM or vehicle (DMSO/propylene glycol, v/v 1:1). Single-cell suspensions (2×10^5) were injected in the tail-veins of Es1(e) mice. After 3 weeks, the mice were sacrificed and the number of tumors present on the surface of the lungs was determined by visual inspection.
LLC cells were treated in culture for 5 days with 4-deoxy AcGnG-NM, AcGnG-NM or vehicle (DMSO:propylene glycol) and then a single-cell suspension (2×10^5 cells) was injected in the tail vein of mice. After 3 weeks, the number of tumors present on the surface of the lungs was determined.

GlcNAcβ1,3Galβ-O-naphthalenemethanol [AcGnG-NM]
cell-surface sLe^X [1]: significant inhibition | sLex expression (CSLEX-1 binding) (LLC cells [2]; 50 μM, 4 days): reduces sLex expression | AAL reactivity (fucose) (LLC cells [2]; flow cytometry): reduces AAL reactivity | sialylation (MAH) (LLC cells [2]; flow cytometry): no effect on sialylation | formation of sialyl Lewis X [3]: inhibit the formation of sialyl Lewis X | tumors on the surface of the lungs (LLC cells [4]): significantly fewer tumor foci
